Measured values published in US20050137166A1, “Use of cooling agents to relieve mild ocular irritation and enhance comfort” (Alcon, Inc., priority 2003, published 2005).

Assays:
mouth = conditions: versus menthol; cited from earlier work
skin = conditions: versus menthol; cited from earlier work
eyes of human patients [1] = assay: Cooling sensation of compositions topically applied to the eyes of human patients; format: in vivo; conditions: for ability to produce a cooling sensation: human patients
Description: (§1) Compositions containing the cooling agents WS-3 and WS-23 in the vehicle described in Example 1 were prepared. The compositions were evaluated relative to the ability to produce a cooling sensation when topically applied to the eyes of human patients. The compositions were also evaluated with respect to the creation of ocular discomfort.

eyes of human patients [2] = assay: Creation of ocular discomfort after topical application to the eyes of human patients; format: in vivo
Description: as §1

[3] = WS-3 at 2 ppm to 5 ppm in the vehicle of Example 1, topical ocular
[4] = ophthalmic composition, ocular cooling
[5] = WS-23 at 10 ppm to 20 ppm in the vehicle of Example 1, topical ocular

For `CC1=C(N2CCCC2)C(=O)OC1` [4-methyl-3-(1-pyrrolididinyl)-2[5H]-furanone], the “cooling power relative to menthol, in the mouth” value (mouth) is given as “thirty-five” and the “cooling power relative to menthol, on the skin” value (skin) is given as “over 500 times”.
In the case of `CCNC(=O)C1CC(C)CCC1C(C)C` (centres unmarked) [WS-3, Cyclohexanecarboxamide, N-ethyl-5-methyl-2-(1-methylethyl)], the “ability to produce a cooling sensation” value (eyes of human patients [1]; [3]) is reported as “refreshing”, the optimal concentration (eyes of human patients [1]; [4]) is reported as 1 to 5 PPM and the “ocular discomfort / tolerability” value (eyes of human patients [2]; [3]) is reported as “comfortable and well tolerated”.
With `CNC(=O)C(C)(C(C)C)C(C)C` [WS-23, N,2,3-Trimethyl-2-isopropylbutamide] the “ability to produce a cooling sensation” value (eyes of human patients [1]; [5]) was “produced a cooling effect”, the “concentration at which most effective” value (eyes of human patients [1]; [4]) was 10 to 20 ppm and the ocular discomfort (eyes of human patients [2]; [5]) was “comfortable”.
